This passage reports IC50 results from patent publication US5489580A, “Phospholipid compounds and use therefor” (University of Connecticut, priority 1992, dated 1996).

The structures appear in SMILES notation. Converted amounts (≈) assume the structure as drawn.

What all share (type): cell-based
The test system of test [1] is NAMALWA leukemic cell line. As to the kind of experiment: LDH release cytotoxicity assay, NAMALWA. Particulars: 5×10^5 cells/mL, 10% fetal calf serum, incubation 2, 4, 8 and 24 hours, time of ID50 not given. On the procedure: (§1) The compounds of the present invention were tested for their cytotoxic effects upon various leukemic cell lines. The effectiveness of each of the compounds tested was measured through assessing the leakage of the cytosolic enzyme, lactic dehydrogenase (LDH), from the leukemia cells into the media following incubation with the compound.
(§2) The LDH release assay used was a modified microtiter plate enzyme linked immunosorbent assay LDH release assay. Seven mg of each phospholipid compound to be tested was completely dissolved in separate 700 μL volumes of 100% ethanol. The ethanolic solutions were then diluted to form stock solutions by the addition of 70 mL RPMI complete medium until the concentration of phospholipid in each solution was lowered to about 100 μg/mL. An RPMI complete medium contains a RPMI 1640 medium, without red phenol, 20 mM Hepes buffer, 2 mM L-glutamine, 50 μM 2-mercaptoethanol and 20% of fetal calf serum. To form an ethanol control, a 350 μL aliquot of ethanol was added to a small glass bottle containing 35 mL of RPMI complete medium.
(§3) Each stock solution was mixed by magnetic stirring bar at room temperature for one hour and then filtered through a 0.22 μm Millipore filter, where the filter was pre-rinsed with 0.6 mL of RPMI complete medium. The stock solutions were subsequently placed in a shaker in a cold room overnight and subsequently stored in small glass bottles wrapped with aluminum foil at 4° C.
(§4) Each stock solution was shaken for 30 minutes at room temperature. Then each phospholipid stock solution was separately diluted, in small glass vials, with RPMI complete medium to form solutions with phospholipid concentrations of 80 μg, 40 μg, 20 μg and 10 μg.
(§5) For each cell line, the leukemia cells were removed from the culture flask, put into a 50 mL conical tube, centrifuged at 500 rpm for 10 minutes and then washed once with fresh RPMI 1640 medium.
(§6) Aliquots (0.4 mL) of each 100 μg, 80 μg, 40 μg, 20 μg and 10 μg phospholipid solution were added to small vials containing 0.4 mL of cell suspension to form test solutions with phospholipid concentrations of 50, 40, 20, 10 and 5 μg/mL; cell densities of 5×10^5 cells/mL; and 10% fetal calf serum in RPMI complete medium. For an ethanol control group, an aliquot of 0.4 mL of the ethanol control was mixed with 0.4 mL of cell suspension to form a control group with an ethanol concentration of 0.495% and a cell density of 5×10^5 cells/mL. For a negative control group, a 0.4 mL aliquot of RPMI complete medium was added to 0.4 mL of cell suspension to give a cell density of 5×10^5 cells/mL. For a positive control group, cell suspension was diluted with RPMI 1640 medium, which contained 10% fetal calf serum, 20 mM Hepes buffer, 2 mM L-glutamine and 2-mercaptoethanol and stored overnight at -70° C.
(§7) Aliquots (0.2 mL) of each test solution and control group were added to flat bottomed Linbro microtiter plates, in triplicate, and incubated for 2, 4, 8 and 24 hours. Following incubation, the plates were centrifuged at 500 rpm for 5 minutes. Supernatant aliquots of 0.1 mL were then transferred to separate wells on an optic-clear, flat-bottomed microtiter plate. A volume of 0.1 mL of an LDH substrate mixture, containing 5.4×10^-2 M L(+)-lactate, 6.6×10^-4 MINT, provided by Sigma Chemical Company, 2.8×10^-4 M PMS, and 1.3×10^-3M NAD in a 0.2 M Tris buffer of pH 8.2, was added to each well. A Linbro-Titertek Company Lambda microtiter plate reader was used to monitor the absorbance at 490 nm.
(§8) The cytotoxic effectiveness of each compound tested, as provided in Table I, is described in terms of the ID50 of the drug. The ID50 is the concentration of the compound tested that is required to produce a cytotoxicity that is 50% of the control's cytotoxicity.
For orientation: LDH in the medium is a marker of cell lysis.

The next test has as its system HL60 leukemic cell line. Nature of the test: LDH release cytotoxicity assay, HL60. As to conditions: Homo sapiens, HL-60, 5×10^5 cells/mL, 10% fetal calf serum, incubation 2, 4, 8 and 24 hours, time of ID50 not given. As for the experimental part:
as §1, §2, §3, §4, §5
Aliquots (0.4 mL) of each 100 μg, 80 μg, 40 μg, 20 μg and 10 μg phospholipid solution were added to small vials containing 0.4 mL of cell suspension to form test solutions with phospholipid concentrations of 50, 40, 20, 10 and 5 μg/mL; cell densities of 5×10^5 cells/mL; and 10% fetal calf serum in RPMI complete medium. For an ethanol control group, an aliquot of 0.4 mL of the ethanol control was mixed with 0.4 mL of cell suspension to form a control group with an ethanol concentration of 0.495% and a cell density of 5×10^5 cells/mL. […]
Aliquots (0.2 mL) of each test solution and control group were added to flat bottomed Linbro microtiter plates, in triplicate, and incubated for 2, 4, 8 and 24 hours. […] A Linbro-Titertek Company Lambda microtiter plate reader was used to monitor the absorbance at 490 nm. […]

The test system of another test is CEM leukemic cell line. Nature of the test: LDH release cytotoxicity assay, CEM. As to conditions: 5×10^5 cells/mL, 10% fetal calf serum, incubation 2, 4, 8 and 24 hours, time of ID50 not given. On the procedure: as §1, §2, §3, §4, §5, §6, §7, §8
Test [2] relates to HUT 78 leukemic cell line. As to the kind of experiment: LDH release cytotoxicity assay, HUT 78. Particulars: Homo sapiens, HuT78, 5×10^5 cells/mL, 10% fetal calf serum, incubation 2, 4, 8 and 24 hours, time of ID50 not given. On the procedure:
as §1, §2, §3, §4, §5, §6, §7, §8

`CCCCCCCCCCCCCCCCC[C@@H]1CO[C@@H](COP(=O)([O-])OCC[N+](C)(C)C)CO1` [(2R,5R)-(5-heptadecyl-1,4-dioxan-2-yl) methyloxyphosphocholine]: the concentration for half-maximal inhibition (IC50) (in test [1]; in the test on HL60 leukemic cell line; in the test on CEM leukemic cell line) was 4 µg/mL (≈ 7.67 µM) each time.
In the case of `CCCCCCCCCCCCCCCCCCOC[C@H](COP(=O)([O-])OC[C@@H](C)[N+](C)(C)C)OC` [(2R,βR)-2-O-Methyl-1-O-octadecyl-sn-glycero-3-phospho-(β-methyl)choline], the values for the IC50 (in test [1]; in test [2]; in the test on CEM leukemic cell line) were 13.5 µg/mL (≈ 25.1 µM), 11.2 µg/mL (≈ 20.8 µM) and 3.3 µg/mL (≈ 6.14 µM), respectively.
As for `CCCCCCCCCCCCCCCCC[C@@H]1CO[C@H](COP(=O)([O-])OCC[N+](C)(C)C)CO1` [(2S,5R)-(5-heptadecyl-1,4-dioxan-2-yl)methyloxyphosphocholine], the IC50 (in test [1]; in the test with HL60 leukemic cell line; in the test on CEM leukemic cell line) was 4 µg/mL (≈ 7.67 µM) throughout.
Turning to `CCCCCCCCCCCCCCCCC[C@H]1CO[C@H](COP(=O)([O-])OCC[N+](C)(C)C)CO1` [(2S,5S)-(5-heptadecyl-1,4-dioxan-2-yl)methyloxyphosphocholine], the IC50 (in test [1]; in the test with HL60 leukemic cell line; with CEM leukemic cell line) was below 2 µg/mL throughout.
`CCCCCCCCCCCCCCCCCCOCC(COP(=O)([O-])OCC[N+]1(C)CCCC1)OC` (stereo not drawn) [2-O-Methyl-1-O-octadecylglycero-3-phospho-(β-(N-methylpyrrolidino))ethanol]: the 50% inhibitory concentration (IC50) stood at 17.5 µg/mL (≈ 31.8 µM) in test [1], 13 µg/mL (≈ 23.6 µM) in test [2] and 3.4 µg/mL (≈ 6.18 µM) in the test on CEM leukemic cell line.
Consider `CCCCCCCCCCCCCCCCCCOC[C@H](COP(=O)([O-])OC[C@H](C)[N+](C)(C)C)OC` [(2R,βS)-2-O-Methyl-1-O-octadecyl-sn-glycero-3-phospho-(β-methyl)choline], for which the IC50 in test [1] is 12.8 µg/mL (≈ 23.8 µM); in test [2], 6.6 µg/mL (≈ 12.3 µM); in the test with CEM leukemic cell line, 2.85 µg/mL (≈ 5.3 µM).
For `CCCCCCCCCCCCCCCCC[C@H]1CO[C@@H](COP(=O)([O-])OCC[N+](C)(C)C)CO1` [(2R,5S)-(5-heptadecyl-1,4-dioxan-2-yl)methyloxyphosphocholine], the IC50 (in test [1]; in the test on HL60 leukemic cell line; with CEM leukemic cell line) was below 2 µg/mL throughout.
On to `CCCCCCCCCCCCCCCCCCOC[C@H](COP(=O)(O)O)OC` [(R)-2-O-Methyl-1-O-octadecyl-sn-glycero-3-phosphoric acid], for which the half-maximal inhibitory concentration (IC50) is 24 µg/mL (≈ 54.7 µM) in test [1], 3 µg/mL (≈ 6.84 µM) in test [2] and 2.95 µg/mL (≈ 6.73 µM) in the test with CEM leukemic cell line.
For the compound `CCCCCCCCCCCCCCCCCCOC[C@H](COP(=O)([O-])O[C@@H](C)C[N+](C)(C)C)OC` [(2R,αS)-2-O-Methyl-1-O-octadecyl-sn-glycero-3-phospho-(α-methyl)choline], the concentration for half-maximal inhibition (IC50) in test [1] was 21.5 µg/mL (≈ 40 µM); in test [2], 15.2 µg/mL (≈ 28.3 µM); with CEM leukemic cell line it was 4.5 µg/mL (≈ 8.37 µM).
Taken in the same sequence, the figures for `CCCCCCCCCCCCCCCCCCOCC(COP(=O)([O-])OCC[N+]1(C)CCOCC1)OC` (stereo not drawn) [2-O-Methyl-1-O-octadecylglycero-3-phospho-(β-(N-methylmorpholino))ethanol] were 11 µg/mL (≈ 19.4 µM), 6.6 µg/mL (≈ 11.7 µM) and 3.6 µg/mL (≈ 6.36 µM).
Taken in the same sequence, the figures for `CCCCCCCCCCCCCCCCCCOC[C@H](COP(=O)([O-])O[C@H](C)C[N+](C)(C)C)OC` [(2R,αR)-2-O-Methyl-1-O-octadecyl-sn-glycero-3-phospho-(α-methyl)choline] were 22 µg/mL (≈ 40.9 µM), 21 µg/mL (≈ 39.1 µM) and 5.6 µg/mL (≈ 10.4 µM).

Broadly, the IC50 is the point on the concentration scale where inhibition reaches its midpoint.
